Measurements from ChEMBL document CHEMBL3046023, “Synthesis, in vitro cytotoxicity, and anti-microbial studies of 1,4-bis(4-substituted-5-mercapto-1,2,4-triazol-3-yl)butanes” (Med Chem Res, 2012).
Converted amounts (≈) assume the structure as drawn.

Tests used:
[1] = system: Escherichia coli; experiment: Antibacterial activity against Escherichia coli ATCC 25922 after 24 hr by serial dilution method; format: functional; settings: ATCC 25922, 24 h
[2] = system: MDA-MB-231; experiment: Cytotoxicity against Homo sapiens (human) MDA-MB-231 cells after 72 hr by MTT assay; format: functional, cell-based; settings: MDA-MB-231, 72 h
[3] = system: Pseudomonas aeruginosa; experiment: Antibacterial activity against Pseudomonas aeruginosa ATCC 27853 after 24 hr by serial dilution method; format: functional; settings: ATCC 27853, 24 h
[4] = system: HT-29; experiment: Cytotoxicity against Homo sapiens (human) HT-29 cells after 72 hr by MTT assay; format: functional, cell-based; settings: HT-29, 72 h
[5] = system: Bacillus subtilis; experiment: Antibacterial activity against Bacillus subtilis ATCC 6633 after 24 hr by serial dilution method; format: functional; settings: ATCC 6633, 24 h
[6] = system: Staphylococcus aureus; experiment: Antibacterial activity against Staphylococcus aureus ATCC 25923 after 24 hr by serial dilution method; format: functional; settings: ATCC 25923, 24 h
[7] = system: A549; experiment: Cytotoxicity against Homo sapiens (human) A549 cells after 72 hr by MTT assay; format: functional, cell-based; settings: A549, 72 h

## Cc1ccc(-n2c(CCCCc3nnc(SCC(=O)NN)n3-c3ccc(C)cc3)nnc2SCC(=O)NN)cc1
[1]
  MIC: 12.5 mg/L (≈ 21.5 µM)
[2]
  IC50: 32.2 µM
[3]
  MIC: 100 mg/L (≈ 172 µM)
[4]
  IC50: 31.2 µM
[5]
  MIC: 12.5 mg/L (≈ 21.5 µM)
[6]
  MIC: 12.5 mg/L (≈ 21.5 µM)
[7]
  IC50: 36.9 µM

## Cc1cccc(-n2c(CCCCc3nnc(SCC(=O)NN)n3-c3cccc(C)c3)nnc2SCC(=O)NN)c1
[1]
  MIC: 25 mg/L (≈ 43 µM)
[2]
  IC50: 40.2 µM
[4]
  IC50: 38.2 µM
[5]
  MIC: 25 mg/L (≈ 43 µM)
[6]
  MIC: 25 mg/L (≈ 43 µM)
[7]
  IC50: 39.1 µM

## CCOc1ccc(-n2c(CCCCc3nnc(SCC(=O)NN)n3-c3ccc(OCC)cc3)nnc2SCC(=O)NN)cc1
[1]
  MIC: 12.5 mg/L (≈ 19.5 µM)
[2]
  IC50: 13.2 µM
[3]
  MIC: 12.5 mg/L (≈ 19.5 µM)
[4]
  IC50: 5.16 µM
[5]
  MIC: 6.25 mg/L (≈ 9.75 µM)
[6]
  MIC: 12.5 mg/L (≈ 19.5 µM)
[7]
  IC50: 9.13 µM

## NNC(=O)CSc1nnc(CCCCc2nnc(SCC(=O)NN)n2C2CCCCC2)n1C1CCCCC1
[1]
  MIC: 50 mg/L (≈ 88.5 µM)
[2]
  IC50: 70.2 µM
[4]
  IC50: 66.2 µM
[5]
  MIC: 100 mg/L (≈ 177 µM)
[7]
  IC50: 65.3 µM

## CCCCn1c(CCCCc2nnc(SCC(=O)NN)n2CCCC)nnc1SCC(=O)NN
[1]
  MIC: 100 mg/L (≈ 195 µM)
[2]
  IC50: 59.8 µM
[4]
  IC50: 63.4 µM
[5]
  MIC: 100 mg/L (≈ 195 µM)
[7]
  IC50: 69.3 µM

## CCOC(=O)CSc1nnc(CCCCc2nnc(SCC(=O)OCC)n2C2CCCCC2)n1C1CCCCC1
[1]
  MIC: 100 mg/L (≈ 169 µM)
[2]
  IC50: 70.4 µM
[4]
  IC50: 65.3 µM
[5]
  MIC: 100 mg/L (≈ 169 µM)
[7]
  IC50: 51.9 µM

## CCCCn1c(CCCCc2nnc(SCC(=O)OCC)n2CCCC)nnc1SCC(=O)OCC
[1]
  MIC: 100 mg/L (≈ 185 µM)
[2]
  IC50: 71.4 µM
[4]
  IC50: 69.8 µM
[5]
  MIC: 100 mg/L (≈ 185 µM)
[7]
  IC50: 61.5 µM

## NNC(=O)CSc1nnc(CCCCc2nnc(SCC(=O)NN)n2-c2ccccc2)n1-c1ccccc1
[1]
  MIC: 25 mg/L (≈ 45.2 µM)
[2]
  IC50: 69.9 µM
[3]
  MIC: 100 mg/L (≈ 181 µM)
[4]
  IC50: 65.3 µM
[5]
  MIC: 25 mg/L (≈ 45.2 µM)
[6]
  MIC: 25 mg/L (≈ 45.2 µM)
[7]
  IC50: 63.2 µM

## CCOC(=O)CSc1nnc(CCCCc2nnc(SCC(=O)OCC)n2-c2ccc(C)cc2)n1-c1ccc(C)cc1
[1]
  MIC: 100 mg/L (≈ 164 µM)
[2]
  IC50: 24.3 µM
[3]
  MIC: 100 mg/L (≈ 164 µM)
[4]
  IC50: 13.5 µM
[5]
  MIC: 100 mg/L (≈ 164 µM)
[6]
  MIC: 100 mg/L (≈ 164 µM)
[7]
  IC50: 9.13 µM

## CCOC(=O)CSc1nnc(CCCCc2nnc(SCC(=O)OCC)n2-c2cccc(C)c2)n1-c1cccc(C)c1
[1]
  MIC: 50 mg/L (≈ 82.1 µM)
[2]
  IC50: 25.2 µM
[3]
  MIC: 100 mg/L (≈ 164 µM)
[4]
  IC50: 25.8 µM
[5]
  MIC: 50 mg/L (≈ 82.1 µM)
[6]
  MIC: 100 mg/L (≈ 164 µM)
[7]
  IC50: 23.3 µM

## CCOC(=O)CSc1nnc(CCCCc2nnc(SCC(=O)OCC)n2-c2ccc(OCC)cc2)n1-c1ccc(OCC)cc1
[1]
  MIC: 25 mg/L (≈ 37.4 µM)
[2]
  IC50: 15.1 µM
[3]
  MIC: 100 mg/L (≈ 150 µM)
[4]
  IC50: 13.2 µM
[5]
  MIC: 25 mg/L (≈ 37.4 µM)
[6]
  MIC: 50 mg/L (≈ 74.8 µM)
[7]
  IC50: 9.3 µM

## CCOc1ccc(-n2c(CCCCc3nnc(SC(=O)N(CC)CC)n3-c3ccc(OCC)cc3)nnc2SC(=O)N(CC)CC)cc1
[1]
  MIC: 100 mg/L (≈ 144 µM)
[2]
  IC50: 71.6 µM
[4]
  IC50: 75 µM
[5]
  MIC: 50 mg/L (≈ 71.9 µM)
[7]
  IC50: 51.9 µM

## CCN(CC)C(=O)Sc1nnc(CCCCc2nnc(SC(=O)N(CC)CC)n2C2CCCCC2)n1C1CCCCC1
[1]
  MIC: 100 mg/L (≈ 162 µM)
[2]
  IC50: 66.2 µM
[4]
  IC50: 69.9 µM
[5]
  MIC: 100 mg/L (≈ 162 µM)
[7]
  IC50: 51.8 µM

## CCCCn1c(CCCCc2nnc(SC(=O)N(CC)CC)n2CCCC)nnc1SC(=O)N(CC)CC
[2]
  IC50: 70.3 µM
[4]
  IC50: 64.5 µM
[7]
  IC50: 63.1 µM

## CCOC(=O)CSc1nnc(CCCCc2nnc(SCC(=O)OCC)n2-c2ccccc2)n1-c1ccccc1
[1]
  MIC: 50 mg/L (≈ 86.1 µM)
[2]
  IC50: 32.2 µM
[3]
  MIC: 100 mg/L (≈ 172 µM)
[4]
  IC50: 51.2 µM
[5]
  MIC: 100 mg/L (≈ 172 µM)
[6]
  MIC: 100 mg/L (≈ 172 µM)
[7]
  IC50: 34.5 µM

## CCN(CC)C(=O)Sc1nnc(CCCCc2nnc(SC(=O)N(CC)CC)n2-c2ccccc2)n1-c1ccccc1
[1]
  MIC: 12.5 mg/L (≈ 20.6 µM)
[2]
  IC50: 14.9 µM
[3]
  MIC: 50 mg/L (≈ 82.4 µM)
[4]
  IC50: 14.3 µM
[5]
  MIC: 25 mg/L (≈ 41.2 µM)
[6]
  MIC: 50 mg/L (≈ 82.4 µM)
[7]
  IC50: 19.3 µM

## CCN(CC)C(=O)Sc1nnc(CCCCc2nnc(SC(=O)N(CC)CC)n2-c2ccc(C)cc2)n1-c1ccc(C)cc1
[1]
  MIC: 12.5 mg/L (≈ 19.7 µM)
[2]
  IC50: 8.17 µM
[3]
  MIC: 25 mg/L (≈ 39.4 µM)
[4]
  IC50: 3.45 µM
[5]
  MIC: 12.5 mg/L (≈ 19.7 µM)
[6]
  MIC: 25 mg/L (≈ 39.4 µM)
[7]
  IC50: 3.23 µM

## CCN(CC)C(=O)Sc1nnc(CCCCc2nnc(SC(=O)N(CC)CC)n2-c2cccc(C)c2)n1-c1cccc(C)c1
[1]
  MIC: 12.5 mg/L (≈ 19.7 µM)
[2]
  IC50: 17.2 µM
[3]
  MIC: 25 mg/L (≈ 39.4 µM)
[4]
  IC50: 10.2 µM
[5]
  MIC: 25 mg/L (≈ 39.4 µM)
[6]
  MIC: 50 mg/L (≈ 78.8 µM)
[7]
  IC50: 15.2 µM

## CC1(C)S[C@@H]2[C@H](NC(=O)[C@H](N)c3ccccc3)C(=O)N2[C@H]1C(=O)O [AMPICILLIN]
[1]
  MIC: 6.25 mg/L (≈ 17.9 µM)
[3]
  MIC: 12.5 mg/L (≈ 35.8 µM)
[5]
  MIC: 12.5 mg/L (≈ 35.8 µM)
[6]
  MIC: 6.25 mg/L (≈ 17.9 µM)

## COc1cccc2c1C(=O)c1c(O)c3c(c(O)c1C2=O)C[C@@](O)(C(=O)CO)C[C@@H]3O[C@H]1C[C@H](N)[C@H](O)[C@H](C)O1 [DOXORUBICIN]
[2]
  IC50: 0.1 µM
[4]
  IC50: 0.07 µM
[7]
  IC50: 0.09 µM
